Reference: ChEMBL document CHEMBL1629655, “Affinity of Tomopenem (CS-023) for penicillin-binding proteins in Staphylococcus aureus, Escherichia coli, and Pseudomonas aeruginosa” (Antimicrob Agents Chemother, 2009)
≈ marks a conversion by molar mass, not a printed value. Calls of active or inactive are those of the source. No cut-off for these calls is given here.

Assays:
Escherichia coli [1] = test: Ratio of MIC for Escherichia coli ERR2a selected to MIC for Escherichia coli NIHJ; type: functional
[2] = Displacement of [14C]benzylpenicillin from PBP2 in Escherichia coli NIHJ
[3] = Displacement of [14C]benzylpenicillin from PBP6 Escherichia coli NIHJ
Escherichia coli [4] = test: Ratio of MIC for Escherichia coli ERR2b to MIC for Escherichia coli NIHJ; type: functional
Escherichia coli [5] = test: Ratio of MIC for Escherichia coli EIR4b to MIC for Escherichia coli NIHJ; type: functional
[6] = Displacement of [14C]benzylpenicillin from PBP 6 in Pseudomonas aeruginosa ATCC 15692
[7] = Displacement of [14C]benzylpenicillin from PBP4 in Escherichia coli NIHJ
Escherichia coli [8] = test: Antibacterial activity against Escherichia coli NIHJ assessed as appearance of swollen cells at 1/8 times MIC by Scanning electron microscopy; type: functional, organism-based
[9] = Displacement of [14C]benzylpenicillin from PBP3 in Escherichia coli NIHJ
Pseudomonas aeruginosa [10] = test: Antibacterial activity against Pseudomonas aeruginosa ATCC 15692 assessed as filamentation of cells at 0.125 times MIC by scanning electron microscopy; type: functional, organism-based
Staphylococcus aureus [11] = test: Ratio of MIC for Staphylococcus aureus SIR2a selected at 2 times MIC of imipenem to MIC for Staphylococcus aureus ATCC 6538P; type: functional
Pseudomonas aeruginosa [12] = test: Ratio of MIC for Pseudomonas aeruginosa PMR2a to MIC for Pseudomonas aeruginosa ATCC 15692; type: functional
[13] = Displacement of [14C]benzylpenicillin from PBP1 in Staphylococcus aureus ATCC 6538P
Escherichia coli [14] = test: Ratio of MIC for Escherichia coli EIR2a to MIC for Escherichia coli NIHJ; type: functional
Staphylococcus aureus [15] = test: Ratio of MIC for Staphylococcus aureus SRR2a to MIC for Staphylococcus aureus ATCC 6538P; type: functional
Escherichia coli [16] = test: Ratio of MIC for Escherichia coli EIR8a to MIC for Escherichia coli NIHJ; type: functional
[17] = Displacement of [14C]benzylpenicillin from PBP1A in Pseudomonas aeruginosa ATCC 15692
Escherichia coli [18] = test: Ratio of MIC for Escherichia coli EMR2a to MIC for Escherichia coli NIHJ; type: functional
Pseudomonas aeruginosa [19] = test: Antibacterial activity against Pseudomonas aeruginosa ATCC 15692 assessed as fold decrease in compound susceptibility after 10 passages relative to control; type: functional
Pseudomonas aeruginosa [20] = test: Antibacterial activity against Pseudomonas aeruginosa PRR4a selected at 4 times MIC of tomopenem by microdilution method; type: functional
Escherichia coli [21] = test: Antibacterial activity against Escherichia coli EMR2a selected at 2 times MIC of meropenem by microdilution method; type: functional
[22] = Displacement of [14C]benzylpenicillin from PBP1B in Pseudomonas aeruginosa ATCC 15692
Staphylococcus aureus [23] = test: Ratio of MIC for Staphylococcus aureus SMR4a to MIC for Staphylococcus aureus ATCC 6538P; type: functional
[24] = Displacement of [14C]benzylpenicillin from PBP1B in Escherichia coli NIHJ
Pseudomonas aeruginosa [25] = test: Antibacterial activity against Pseudomonas aeruginosa ATCC 15692 assessed as appearance of bulge cells at MIC by Scanning electron microscopy; type: functional, organism-based
[26] = Displacement of [14C]benzylpenicillin from PBP2 Staphylococcus aureus ATCC 6538P
Escherichia coli [27] = test: Antibacterial activity against Escherichia coli NIHJ assessed as appearance of spherical and bulge cells at 8 times MIC by Scanning electron microscopy; type: functional, organism-based
Pseudomonas aeruginosa [28] = test: Ratio of MIC for Pseudomonas aeruginosa PRR4a to MIC for Pseudomonas aeruginosa ATCC 15692; type: functional
Staphylococcus aureus [29] = test: Antibacterial activity against Staphylococcus aureus SIR2a selected at 2 times MIC of imipenem by microdilution method; type: functional
Escherichia coli [30] = test: Antibacterial activity against Escherichia coli EIR8a selected at 8 times MIC of imipenem by microdilution method; type: functional
[31] = Displacement of [14C]benzylpenicillin from PBP 5 in Pseudomonas aeruginosa ATCC 15692
[32] = Displacement of [14C]benzylpenicillin from PBP2 in Pseudomonas aeruginosa ATCC 15692
[33] = Displacement of [14C]benzylpenicillin from PBP4 in Staphylococcus aureus ATCC 6538P
Escherichia coli [34] = test: Antibacterial activity against Escherichia coli EIR4b selected at 4 times MIC of imipenem by microdilution method; type: functional
Escherichia coli [35] = test: Antibacterial activity against Escherichia coli ERR2a selected at 2 times MIC of tomopenem by microdilution method; type: functional
Staphylococcus aureus [36] = test: Antibacterial activity against Staphylococcus aureus SMR2a selected at 2 times MIC of meropenem by microdilution method; type: functional
Escherichia coli [37] = test: Antibacterial activity against Escherichia coli EIR2b selected at 2 times MIC of imipenem by microdilution method; type: functional
Escherichia coli [38] = test: Antibacterial activity against Escherichia coli ERR8a selected at 8 times MIC of tomopenem by microdilution method; type: functional
Pseudomonas aeruginosa [39] = test: Ratio of MIC for Pseudomonas aeruginosa PIR2a to MIC for Pseudomonas aeruginosa ATCC 15692; type: functional
Staphylococcus aureus [40] = test: Antibacterial activity against Staphylococcus aureus SMR4a […] MIC of meropenem by microdilution method; type: functional
Escherichia coli [41] = test: Antibacterial activity against Escherichia coli NIHJ by microdilution method; type: functional, organism-based
Escherichia coli [42] = test: Antibacterial activity against Escherichia coli EIR2a selected at 2 times MIC of imipenem by microdilution method; type: functional
Staphylococcus aureus [43] = test: Antibacterial activity against methicillin-sensitive Staphylococcus aureus by microdilution method; type: functional
Pseudomonas aeruginosa [44] = test: Antibacterial activity against Pseudomonas aeruginosa PMR2a selected at 2 times MIC of meropenem by microdilution method; type: functional
Escherichia coli [45] = test: Ratio of MIC for Escherichia coli ERR4a to MIC for Escherichia coli NIHJ; type: functional
Escherichia coli [46] = test: Antibacterial activity against Escherichia coli ERR2b selected at 2 times MIC of tomopenem by microdilution method; type: functional
Escherichia coli [47] = test: Ratio of MIC for Escherichia coli EIR2b to MIC for Escherichia coli NIHJ; type: functional
Escherichia coli [48] = test: Ratio of MIC for Escherichia coli ERR8a to MIC for Escherichia coli NIHJ; type: functional
Staphylococcus aureus [49] = test: Ratio of MIC for Staphylococcus aureus SMR2a to MIC for Staphylococcus aureus ATCC 6538P; type: functional
Staphylococcus aureus [50] = test: Antibacterial activity against Staphylococcus aureus ATCC 6538P assessed as fold decrease in compound susceptibility after 10 passages relative to control; type: functional
Escherichia coli [51] = test: Ratio of MIC for Escherichia coli EIR4a to MIC for Escherichia coli NIHJ; type: functional
[52] = Displacement of [14C]benzylpenicillin from PBP4 in Pseudomonas aeruginosa ATCC 15692
Staphylococcus aureus [53] = test: Antibacterial activity against Staphylococcus aureus SRR2a selected at 2 times MIC of tomopenem by microdilution method; type: functional
Escherichia coli [54] = test: Antibacterial activity against Escherichia coli EIR4a selected at 4 times MIC of imipenem by microdilution method; type: functional
Staphylococcus aureus [55] = test: Antibacterial activity against methicillin-resistant Staphylococcus aureus by microdilution method; type: functional
[56] = Displacement of [14C]benzylpenicillin from PBP5 in Escherichia coli NIHJ
[57] = Displacement of [14C]benzylpenicillin from PBP1A in Escherichia coli NIHJ
Escherichia coli [58] = test: Antibacterial activity against Escherichia coli ERR4a selected at 4 times MIC of tomopenem by microdilution method; type: functional
Pseudomonas aeruginosa [59] = test: Antibacterial activity against Pseudomonas aeruginosa PIR2a selected at 2 times MIC of imipenem by microdilution method; type: functional
Staphylococcus aureus [60] = test: Antibacterial activity against Staphylococcus aureus ATCC 6538P by microdilution method; type: functional, organism-based
[61] = Displacement of [14C]benzylpenicillin from PBP3 in Staphylococcus aureus ATCC 6538P
[62] = Displacement of [14C]benzylpenicillin from PBP3 in Pseudomonas aeruginosa ATCC 15692
Pseudomonas aeruginosa [63] = test: Antibacterial activity against Pseudomonas aeruginosa ATCC 15692 by microdilution method; type: functional, organism-based

## C[C@@H](O)[C@H]1C(=O)N2C(C(=O)O)=C(S[C@H]3C[C@@H](C(=O)N4CC[C@H](NC(=O)CNC(=N)N)C4)N(C)C3)[C@H](C)[C@H]12 [TOMOPENEM]
Escherichia coli [1]
  Ratio MIC: 4
[2]
  IC50: 0.017 µg/mL (≈ 0.0316 µM)
[3]
  IC50: 31 µg/mL (≈ 57.7 µM)
Escherichia coli [4]
  Ratio MIC: 4
Escherichia coli [5]
  Ratio MIC: 2
[6]
  IC50: 5 µg/mL (≈ 9.3 µM)
[7]
  IC50: > 32 µg/mL
Escherichia coli [8]
  Activity: Active
[9]
  IC50: 0.71 µg/mL (≈ 1.32 µM)
Pseudomonas aeruginosa [10]
  Activity: Active
Staphylococcus aureus [11]
  Ratio MIC: 4
Pseudomonas aeruginosa [12]
  Ratio MIC: 8
[13]
  IC50: 0.16 µg/mL (≈ 0.298 µM)
Escherichia coli [14]
  Ratio MIC: 2
Staphylococcus aureus [15]
  Ratio MIC: 4
Escherichia coli [16]
  Ratio MIC: 2
[17]
  IC50: 0.061 µg/mL (≈ 0.113 µM)
Escherichia coli [18]
  Ratio MIC: 2
Pseudomonas aeruginosa [19]
  fold change (FC): 8
Pseudomonas aeruginosa [20]
  MIC: 8 µg/mL
Escherichia coli [21]
  MIC: 0.06 µg/mL
[22]
  IC50: 0.053 µg/mL (≈ 0.0986 µM)
Staphylococcus aureus [23]
  ratio: 8
[24]
  IC50: 1.3 µg/mL (≈ 2.42 µM)
Pseudomonas aeruginosa [25]
  Activity: Active
[26]
  IC50: 0.21 µg/mL (≈ 0.391 µM)
Escherichia coli [27]
  Activity: Active
Pseudomonas aeruginosa [28]
  Ratio MIC: 32
Staphylococcus aureus [29]
  MIC: 0.25 µg/mL
Escherichia coli [30]
  MIC: 0.06 µg/mL
[31]
  IC50: 5 µg/mL (≈ 9.3 µM)
[32]
  IC50: 0.011 µg/mL (≈ 0.0205 µM)
[33]
  IC50: 0.094 µg/mL (≈ 0.175 µM)
Escherichia coli [34]
  MIC: 0.06 µg/mL
Escherichia coli [35]
  MIC: 0.12 µg/mL
Staphylococcus aureus [36]
  MIC: 0.25 µg/mL
Escherichia coli [37]
  MIC: 0.06 µg/mL
Escherichia coli [38]
  MIC: 0.12 µg/mL
Pseudomonas aeruginosa [39]
  Ratio MIC: 8
Staphylococcus aureus [40]
  MIC: 0.5 µg/mL
Escherichia coli [41]
  MBC: 0.03 µg/mL (≈ 0.0558 µM)
  MIC: 0.03 µg/mL (≈ 0.0558 µM)
Escherichia coli [42]
  MIC: 0.06 µg/mL
Staphylococcus aureus [43]
  MIC50: 0.12 µg/mL (≈ 0.223 µM)
  MIC90: 0.12 µg/mL (≈ 0.223 µM)
Pseudomonas aeruginosa [44]
  MIC: 2 µg/mL
Escherichia coli [45]
  Ratio MIC: 4
Escherichia coli [46]
  MIC: 0.12 µg/mL
Escherichia coli [47]
  Ratio MIC: 2
Escherichia coli [48]
  Ratio MIC: 4
Staphylococcus aureus [49]
  Ratio MIC: 4
Staphylococcus aureus [50]
  fold change (FC): 2
Escherichia coli [51]
  Ratio MIC: 2
[52]
  IC50: 0.0035 µg/mL (≈ 0.00651 µM)
Staphylococcus aureus [53]
  MIC: 0.25 µg/mL
Escherichia coli [54]
  MIC: 0.06 µg/mL
Staphylococcus aureus [55]
  MIC50: 4 µg/mL (≈ 7.44 µM)
  MIC90: 8 µg/mL (≈ 14.9 µM)
[56]
  IC50: 5.7 µg/mL (≈ 10.6 µM)
[57]
  IC50: 1.2 µg/mL (≈ 2.23 µM)
Escherichia coli [58]
  MIC: 0.12 µg/mL
Pseudomonas aeruginosa [59]
  MIC: 2 µg/mL
Staphylococcus aureus [60]
  IC50: 0.06 µg/mL (≈ 0.112 µM)
  MBC: 0.06 µg/mL (≈ 0.112 µM)
  MIC: 0.06 µg/mL (≈ 0.112 µM)
[61]
  IC50: > 32 µg/mL
[62]
  IC50: 0.011 µg/mL (≈ 0.0205 µM)
Pseudomonas aeruginosa [63]
  MBC: 0.5 µg/mL (≈ 0.93 µM)
  MIC: 0.5 µg/mL (≈ 0.93 µM)

## C[C@H]1COc2c(N3CCN(C)CC3)c(F)cc3c(=O)c(C(=O)O)cn1c23.C[C@H]1COc2c(N3CCN(C)CC3)c(F)cc3c(=O)c(C(=O)O)cn1c23.O [LEVOFLOXACIN]
Escherichia coli [4]
  Ratio MIC: 2
Staphylococcus aureus [11]
  Ratio MIC: 1
Staphylococcus aureus [15]
  Ratio MIC: 2
Staphylococcus aureus [23]
  ratio: 1
Staphylococcus aureus [29]
  MIC: 0.06 µg/mL
Staphylococcus aureus [36]
  MIC: 0.12 µg/mL
Staphylococcus aureus [40]
  MIC: 0.06 µg/mL
Staphylococcus aureus [49]
  Ratio MIC: 2
Staphylococcus aureus [53]
  MIC: 0.12 µg/mL
Pseudomonas aeruginosa [59]
  MIC: 0.5 µg/mL
